{"source": "patent US9290473B2", "about": "“Inhibitors of phosphatidylinositol-3-kinase (PI3) and inducers of nitric oxide (NO)” (COUCIL OF SCIENTIFIC & INDUSTRIAL RESEARCH, priority 2009, dated 2016)", "key": {"[1]": {"tested_on": "Normal human peripheral blood mononuclear cells (PBMC)", "experiment": "Cell viability, trypan blue exclusion, normal PBMC", "format": "cell-based", "conditions": "72 hours incubation", "excerpt": "(§1) Following cancer cell lines were used: chronic myeloid leukemia cell lines K562, KU812; acute myeloid leukemia cell lines HL60, U937; T-lymphoblastic leukemia cell line Molt-4; prostate cancer cell line PC-3; breast cancer cell line MCF-7; pancreatic cancer cell line MIA PaCa-2. These cancer cell lines were maintained in tissue culture in standard growth medium containing 10% heat-inactivated fetal bovine serum (FBS). Normal human peripheral blood mononuclear cells (PBMC) were separated from whole blood by Ficoll/Hypaque density gradient centrifugation. Peripheral blood samples were collected from normal donors with due approval from the Human Ethics Committee of Indian Institute of Chemical Biology, Kolkata, India, and all experiments with human blood were conducted under an approved institutional Human Ethics committee protocol. Informed consent was provided according to the Declaration of Helsinki. Cancer cell lines and PBMC (5×10^3) in triplicate were incubated in 0.2 mL of standard growth medium containing 10% FBS with varying concentrations of test compounds of the present invention. After 72 hours of incubation, cells were collected by centrifugation (at 1000 g for 5 minutes) and cell-viability was determined by the trypan blue exclusion assay. At least 200 cells were examined in each sample. Because of monolayer culture, treated and untreated PC-3, MCF-7 and MIA PaCa-2 cells were detached from the wells by treatment with Cell Dissociation Solution (Sigma Chemical, St. Louis, Mo.) before counting. Data are represented as IC50 (minimum concentration required to inhibit the viability by 50%) in Table 5."}, "[2]": {"tested_on": "chronic myeloid leukemia cell line K562", "experiment": "Cell viability, trypan blue exclusion, K562", "format": "cell-based", "conditions": "Homo sapiens", "excerpt": "as §1"}, "[3]": {"tested_on": "chronic myeloid leukemia cell line KU812", "experiment": "Cell viability, trypan blue exclusion, KU812", "format": "cell-based", "conditions": "Homo sapiens, 72 hours incubation", "excerpt": "as §1"}, "[4]": {"tested_on": "acute myeloid leukemia cell line HL60", "experiment": "Cell viability, trypan blue exclusion, HL-60", "format": "cell-based", "conditions": "Homo sapiens", "excerpt": "as §1"}, "[5]": {"tested_on": "pancreatic cancer cell line MIA PaCa-2", "experiment": "Cell viability, trypan blue exclusion, MIA PaCa-2", "format": "cell-based, human", "conditions": "72 hours incubation, read-out: Activity (IC50) MIAPaCa-2", "excerpt": "as §1"}, "[6]": {"experiment": "Sensitivity to spontaneous autooxidation (H2O2 level, TMB reagent)", "format": "physicochemical", "conditions": "30 µM, 30 min and 2 hr in medium alone, with and without Catalase; H2O2 in supernatant", "protocol": "Spontaneous autooxidation of compounds having phenolic groups produce reactive oxygen species like H2O2. The enzyme Catalase breaks down H2O2 to water, We therefore incubated Compound 1 and 7 (30 µM each) for 30 min and 2 hr in medium alone in the presence and absence of Catalase. Level of H2O2 in the supernatant was then measured as reported using 3,5,3′,5′-tetramethylbenzidine (TMB) reagent (Plant Physiology, 2004, 136, 3114-3123). FIG. 1 represents the data of sensitivity of spontaneous autooxidation of Compound 1 and Compound 7."}, "U937 cells": {"tested_on": "U937 cells", "experiment": "Morphology and apoptosis/necrosis in U937 cells (Giemsa; annexin V-FITC/PI flow cytometry)", "format": "cell-based, human", "conditions": "24 hours", "protocol": "U937 cells were treated with standard growth medium alone or with standard growth medium containing hydroxychavicol (30 μM) for 24 hours. Treated and untreated cells were stained with Giemsa and viewed under microscope (magnification ×1000). For measurement of apoptosis/necrosis, cells were left untreated or treated with Compound No. 1 (30 μM) or Compound No.7 (15 μM) for 24 hours. After washing, cells were stained with fluorescein isothiocyanate (FITC)-conjugated annexin V and propidium iodide (PI) and analysed in a flow cytometer (BD LSR, Becton Dickinson).\nFIG. 2B indicates flow cytometric determination of apoptosis and necrosis by Compound No.1 (hydroxychavicol) and Compound No.7. Apoptosis and necrosis of U937 cells were induced. Cells were left untreated (extreme left panel), or incubated with Compound No.1 (30 μM) (middle panel) or Compound No.7 (extreme right panel) (15 μM) for 24 hours and processed for flow cytometry after staining with annexin V-FITC and propidium iodide (PI). Viable cells are in the lower left quadrant (stained neither by annexin V nor by PI), early apoptotic cells (stained by annexin V only) are in the lower right quadrant, late-stage apoptotic cells (stained by both annexin V and PI) are in the upper right quadrant and the necrotic cells (stained by PI only) are in the upper left quadrant."}, "normal human PBMC": {"tested_on": "normal human PBMC", "experiment": "Apoptosis/necrosis of normal human PBMC by flow cytometry", "format": "cell-based", "conditions": "30 μM, 24 hours", "protocol": "FIG. 2C indicates flow cytometric determination of apoptosis and necrosis of normal human PBMC by Compound 1 (30 μM) and Compound 7 (30 μM) after incubation for 24 hours."}, "PI3/Akt pathway": {"tested_on": "PI3/Akt pathway", "experiment": "Activation of PI3/Akt pathway in MIA PaCa 2 cells (Western blot of Akt phosphorylation)", "format": "cell-based, human", "conditions": "30 μM, 24 hr, reversed by cPTIO 25 μM", "protocol": "MIA PaCa 2 cells were pretreated with NAC (5 mM), cPTIO (25 μM), PI3K inhibitor LY294002 (10 μM) for 3 hr followed by treatment with Compound 1 (30 μM) for 24 hr. Whole cell lysates were prepared and the phosphorylation status and protein expression of Akt were analyzed by Western blot. Cells were also treated with medium alone, Compound 1 (30 μM), c-PTIO (nitric oxide scavenger; 25 μM) or compound 1 plus c-PTIO for 24 hr."}, "[7]": {"tested_on": "Ehrlich ascites carcinoma (EAC)", "experiment": "Ehrlich ascites carcinoma (EAC) model in vivo", "conditions": "30 mg/kg body weight intraperitoneally thrice a week for three weeks, Swiss albino mice", "excerpt": "The in vitro studies indicate that hydroxychavicol and other compounds of the present invention induce killing of a variety of cancer cell lines including breast cancer cell line MCF-7 (Table 5). The MCF-7 cell line is of epithelial origin. Studies were extended in vivo in mouse model for a tumor of epithelial origin. Ehrlich ascites carcinoma is a tumor of epithelial origin (Cancer Research, 1958, 18, 1167-1185). EAC was established in Swiss albino mice as described (Biochemical and Biophysical Research Communications, 2001, 288, 658-665). Swiss albino mice were injected with EAC (2×10^6 cells/mouse) intraperitoneally. 2 days post-injection of tumor cells, these mice (5 per group) were injected intraperitoneally with Compound No. 1 (hydroxychavicol) (30 mg/kg body weight) or Compound No. 7 (30 mg/kg body weight) thrice a week for three weeks. One week after the last injection, mice were sacrificed, and viable cells from peritoneal cavity were counted microscopically. Vehicle (dimethyl sulphoxide [DMSO], 0.1%) was used as control."}}, "note": "Read-outs that look alike come from different tables or passages of the source."}
{"smiles": "C=CCc1ccc(O)c(O)c1", "note": "[Compound 1, 4-allyl-benzene-1,2-diol]", "values": [{"measurement": "IC50", "setting": "[1]", "value": 80, "unit": "µM"}, {"measurement": "IC50", "setting": "[2]; K562, 72 hours incubation, trypan blue exclusion, read-out: Activity (IC50) K562", "value": 20, "unit": "µM"}, {"measurement": "IC50", "setting": "[2]; read-out: IC50 against chronic myeloid leukemia cancer cell lines (K562), range over both cell lines K562, KU812 and KU812 and over the listed compounds, read-out: IC50 against chronic myeloid leukemia cancer cell lines (K562, KU812)", "value": "13 to 52", "unit": "µM"}, {"measurement": "IC50", "setting": "[3]", "value": 25, "unit": "µM"}, {"measurement": "IC50", "setting": "[4]; 72 hours incubation, trypan blue exclusion, read-out: Activity (IC50) HL-60", "value": 25, "unit": "µM"}, {"measurement": "IC50", "setting": "[4]; range over both cell lines HL60 and U937 and over the listed compounds, read-out: IC50 against acute myeloid leukemia cancer cell line (HL60, U937)", "value": "13 to 60", "unit": "µM"}, {"measurement": "IC50", "setting": "[5]", "value": 35, "unit": "µM"}, {"measurement": "IC50", "setting": "[5]; Homo sapiens, MIA PaCa-2, 72 h", "value": "30 to 70", "unit": "µM"}, {"measurement": "Sensitivity to spontaneous autooxidation", "setting": "[6]", "value": "undergoes spontaneous autooxidation"}, {"measurement": "Morphology of U937 cells (mode of killing)", "setting": "U937 cells; 30 μM, Giemsa staining, microscopy", "value": "due to both apoptosis and necrosis"}, {"measurement": "Apoptosis and necrosis of U937 cells by flow cytometry", "setting": "U937 cells; Compound No.1 30 μM, Compound No.7 15 μM, annexin V-FITC/PI", "value": "induce apoptosis and necrosis"}, {"measurement": "Apoptosis and necrosis of normal human PBMC by flow cytometry", "setting": "normal human PBMC", "value": "remained unaffected"}, {"measurement": "Effect on activation of PI3/Akt pathway", "setting": "PI3/Akt pathway", "value": "inhibitis the activation of PI3/Akt pathway"}, {"measurement": "In vivo efficacy against EAC tumor (viable cells from peritoneal cavity)", "setting": "[7]", "value": "effective in vivo in destroying EAC tumor"}]}
